In US11267800B2, “Cyclohexyl acid triazole azines as LPA antagonists” (BRISTOL-MYERS SQUIBB COMPANY, priority 2017, dated 2022):

How the values were obtained:
[1] = test system: IPF patients; conditions: 26-week clinical trial in IPF patients (Palmer et al.); cited from earlier work
[2] = target: T1, human LPA1 (Homo sapiens, UniProt Q92633); test: LPA1 functional antagonist assay (calcium flux); format: cell-based; conditions: CHO cells overexpressing human LPA1; inhibition of calcium flux induced by 10 nM LPA; read-out: hLPA1 IC50
T1 construct: expressed in transfected cells; host or cells: Chinese hamster ovary (CHO) cells
T1 sequence (Q92633 whole entry): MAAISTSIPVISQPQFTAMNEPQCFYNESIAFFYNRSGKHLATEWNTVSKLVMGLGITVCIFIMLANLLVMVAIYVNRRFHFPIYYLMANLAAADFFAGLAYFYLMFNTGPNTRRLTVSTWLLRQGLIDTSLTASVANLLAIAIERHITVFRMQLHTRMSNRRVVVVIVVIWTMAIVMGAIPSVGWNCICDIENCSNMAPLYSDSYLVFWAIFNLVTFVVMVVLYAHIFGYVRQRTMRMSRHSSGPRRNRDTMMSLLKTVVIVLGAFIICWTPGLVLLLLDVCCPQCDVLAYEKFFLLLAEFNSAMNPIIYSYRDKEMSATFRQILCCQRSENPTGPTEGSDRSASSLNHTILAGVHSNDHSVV
Summary of the method: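 Dye-loaded CHO cells overexpressing human LPA1 (30 min, 37 °C) were preincubated 20 min at room temperature with compound (0.08 nM–5 μM; 0.5% DMSO; HBSS, 20 mM HEPES, 0.1% fatty-acid-free BSA), then stimulated with 10 nM LPA. IC50 is the concentration inhibiting 50% of LPA-induced calcium flux, from a 4-parameter logistic fit.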

[3] = test system: nerve-injured mice; conditions: pretreatment, nerve-injured mice (Inoue et al.); cited from earlier work
[4] = test system: human foetal lung fibroblasts; conditions: Tager et al.; cited from earlier work
[5] = test system: UUO mice; conditions: cited from earlier work
[6] = test system: mouse epithelial renal cell line, MCT; conditions: co-treatment with LPA, MCT cells; cited from earlier work
[7] = test system: pancreatic cancer cell lines; conditions: cited from earlier work

Compound | IC50 [2] | other results
Cc1noc(-c2ccc(-c3ccc(C4(C(=O)O)CC4)cc3)cc2)c1NC(=O)O[C@H](C)c1ccccc1 [BMS-986020] |  | rate of FVC (forced vital capacity) decline [1]: significantly reduce
Cc1nc(-c2nnn(C)c2COc2cc(-n3ccnc3)ncn2)ccc1O[C@H]1CCC[C@H](C(=O)O)C1 [Example 359] | 466 nM | 
COCCCCOc1cc(OCc2c(-c3ccc(O[C@H]4CCC[C@H](C(=O)O)C4)c(C)n3)nnn2C)ncn1 [Example 360] | 100 nM | 
Cc1nc(-c2nnn(C)c2COc2cc(OCCOC(C)C)ncn2)ccc1O[C@H]1CCC[C@H](C(=O)O)C1 [Example 361] | 523 nM | 
CCOCCOc1cc(OCc2c(-c3ccc(O[C@H]4CCC[C@H](C(=O)O)C4)c(C)n3)nnn2C)ncn1 [Example 362] | 96 nM | 
CSc1cc(OCc2c(-c3ccc(O[C@H]4CCC[C@H](C(=O)O)C4)c(C)n3)nnn2C)ncn1 [Example 363] | 22 nM | 
CSc1cc(NCc2c(-c3ccc(O[C@H]4CCC[C@H](C(=O)O)C4)c(C)n3)nnn2C)ncn1 [Example 364] | 98 nM | 
Cc1nc(-c2nnn(C)c2CNc2cc(C(F)F)ncn2)ccc1O[C@H]1CCC[C@H](C(=O)O)C1 [Example 365] | 117 nM | 
Cc1nc(-c2nnn(C)c2CNc2nccc(C(F)F)n2)ccc1O[C@H]1CCC[C@H](C(=O)O)C1 [Example 366] | 135 nM | 
CSc1ccnc(OCc2c(-c3ccc(O[C@H]4CCC[C@H](C(=O)O)C4)c(C)n3)nnn2C)n1 [Example 367] | 7.9 nM | 
Cn1nnc(-c2ccc(O[C@H]3CCC[C@H](C(=O)O)C3)cn2)c1COc1cc(C(F)(F)F)ncn1 [Example 368] | 79 nM | 
Cc1nc(-c2nnn(C)c2COc2cc(-n3cccn3)ncn2)ccc1O[C@H]1CCC[C@H](C(=O)O)C1 [Example 369] | 8.4 nM | 
Cc1nc(-c2nnn(C)c2COc2nccc(C(C)(F)F)n2)ccc1O[C@H]1CCC[C@H](C(=O)O)C1 [Example 370] | 21 nM | 
Cc1nc(-c2nnn(C)c2CNc2cc(C3CC3)ccn2)ccc1O[C@H]1CCC[C@H](C(=O)O)C1 [Example 371, (1S,3S)-3-((6-(5-(((4-cyclopropylpyridin-2-yl)amino)methyl)-1-methyl-1H-1,2,3-triazol-4-yl)-2-methylpyridin-3-yl)oxy)cyclohexane-1-carboxylic acid] | 16 nM | 
Cc1nc(-c2nnn(C)c2CNc2cc(-c3ccccc3)c(Cl)nn2)ccc1O[C@H]1CCC[C@H](C(=O)O)C1 [Example 372, (1S,3S)-3-((6-(5-(((6-chloro-5-phenylpyridazin-3-yl)amino)methyl)-1-methyl-1H-1,2,3-triazol-4-yl)-2-methylpyridin-3-yl)oxy)cyclohexane-1-carboxylic acid] | 199 nM | 
Cc1nc(-c2nnn(C)c2CNc2cc(C3CC3)ncn2)ccc1O[C@H]1CCC[C@H](C(=O)O)C1 [Example 373] | 80 nM | 
Cc1nc(-c2nnn(C)c2CNc2ccnc(C3CC3)n2)ccc1O[C@H]1CCC[C@H](C(=O)O)C1 [Example 374] | 90 nM | 
Cc1nc(-c2nnn(C)c2Cc2cccc(-c3ccccc3)n2)ccc1O[C@H]1CCC[C@H](C(=O)O)C1 [Example 376] | 110 nM | 
Cc1nc(-c2nnn(C)c2Cc2cc(-c3ccccc3)ccn2)ccc1O[C@H]1CCC[C@H](C(=O)O)C1 [Example 377] | 7.2 nM | 
Cc1nc(-c2nnn(C)c2Cc2nccc(-c3ccccc3)n2)ccc1O[C@H]1CCC[C@H](C(=O)O)C1 [Example 378] | 24.9 nM | 
Cc1nc(-c2nnn(C)c2CN(C)c2ncnc(C3CC3)n2)ccc1O[C@H]1CCC[C@H](C(=O)O)C1 [Example 379, (1S,3S)-3-{[6-(5-{[(4-cyclopropyl-1,3,5-triazin-2-yl)(methyl)amino]methyl}-1-methyl-1H-1,2,3-triazol-4-yl)-2-methylpyridin-3-yl]oxy}cyclohexane-1-carboxylic acid] | 93 nM | 
CCCc1cncc(NCc2c(-c3ccc(O[C@H]4CCC[C@H](C(=O)O)C4)c(C)n3)nnn2C)n1 [Example 380, (1S,3S)-3-((2-Methyl-6-(1-methyl-5-(((6-propylpyrazin-2-yl)amino)methyl)-1H-1,2,3-triazol-4-yl)pyridin-3-yl)oxy)cyclohexane-1-carboxylic acid] | 94 nM | 
CCCCc1ncnc(N(C)Cc2c(-c3ccc(O[C@H]4CCC[C@H](C(=O)O)C4)c(C)n3)nnn2C)n1 [Example 381] | 38 nM | 
CCCCc1cncc(NCc2c(-c3ccc(O[C@H]4CCC[C@H](C(=O)O)C4)c(C)n3)nnn2C)n1 [Example 382] | 12 nM | 
Cc1nc(-c2nnn(C)c2CNc2nccc(OC3CC3)n2)c(F)cc1O[C@H]1CCC[C@H](C(=O)O)C1 [Example 383] | 227 nM | 
CCOc1ccnc(NCc2c(-c3nc(C)c(O[C@H]4CCC[C@H](C(=O)O)C4)cc3F)nnn2C)n1 [Example 384] | 48 nM | 

Compound | IC50 [2] | other results
CCc1nc(-c2nnn(C)c2CNc2nccc(C(C)(C)C)n2)ccc1O[C@H]1CCC[C@H](C(=O)O)C1 [Example 385] | 41 nM | 
CCc1nc(-c2nnn(C)c2CNc2nccc(OC)n2)ccc1O[C@H]1CCC[C@H](C(=O)O)C1 [Example 386] | 460 nM | 
CCc1nc(-c2nnn(C)c2CNc2nccc(C3CCC3)n2)ccc1O[C@H]1CCC[C@H](C(=O)O)C1 [Example 387] | 24 nM | 
CCc1nc(-c2nnn(C)c2CNc2nccc(C3CC3)n2)ccc1O[C@H]1CCC[C@H](C(=O)O)C1 [Example 388] | 45 nM | 
CCc1nc(-c2nnn(C)c2CNc2nccc(C(C)C)n2)ccc1O[C@H]1CCC[C@H](C(=O)O)C1 [Example 389] | 9.3 nM | 
CCc1nc(-c2nnn(C)c2CNc2nccc(OC3CC3)n2)ccc1O[C@H]1CCC[C@H](C(=O)O)C1 [Example 390] | 17 nM | 
CCc1nc(-c2nnn(C)c2CNc2ccnc(OC3CC3)n2)ccc1O[C@H]1CCC[C@H](C(=O)O)C1 [Example 391] | 208 nM | 
CCCOc1ccnc(NCc2c(-c3ccc(O[C@H]4CCC[C@H](C(=O)O)C4)c(CC)n3)nnn2C)n1 [Example 392] | 15 nM | 
CCOc1ccnc(NCc2c(-c3ccc(O[C@H]4CCC[C@H](C(=O)O)C4)c(CC)n3)nnn2C)n1 [Example 393] | 15 nM | 
Cc1nc(-c2nnn(C)c2Nc2nccc(OCCC(F)(F)F)n2)ccc1O[C@H]1CCC[C@H](C(=O)O)C1 [Example 394] | 103 nM | 
Cc1nc(-c2nnn(C)c2Nc2nccc(OCCCF)n2)ccc1O[C@H]1CCC[C@H](C(=O)O)C1 [Example 395] | 51 nM | 
Cc1nc(-c2nnn(C)c2Nc2nccc(OCC(F)(F)F)n2)ccc1O[C@H]1CCC[C@H](C(=O)O)C1 [Example 396] | 42 nM | 
Cc1nc(-c2nnn(C)c2CNc2cccc(Cc3ccccc3)n2)ccc1O[C@H]1CCC[C@H](C(=O)O)C1 [Example 397] | 1030 nM | 
CCCc1cccc(NCc2c(-c3ccc(O[C@H]4CCC[C@H](C(=O)O)C4)c(C)n3)nnn2C)n1 [Example 398] | 27 nM | 
Cc1nc(-c2nnn(C)c2CNc2cccc(C3CC3)n2)ccc1O[C@H]1CCC[C@H](C(=O)O)C1 [Example 399] | 531 nM | 
Cc1nc(-c2nnn(C)c2CCNc2nccc(C(C)(C)C)n2)ccc1O[C@H]1CCC[C@H](C(=O)O)C1 [Example 400, (1S,3S)-3-((6-(5-(2-((4-(tert-butyl)pyrimidin-2-yl)amino)ethyl)-1-methyl-1H-1,2,3-triazol-4-yl)-2-methylpyridin-3-yl)oxy)cyclohexane-1-carboxylic acid] | 679 nM | 
Cc1nc(-c2nnn(C)c2CCNc2nccc(C(C)C)n2)ccc1O[C@H]1CCC[C@H](C(=O)O)C1 [Example 401] | 1590 nM | 
CCOc1cc(C2CCC2)nc(NCc2c(-c3ccc(O[C@H]4CCC[C@H](C(=O)O)C4)c(C)n3)nnn2C)n1 [Example 402] | 36 nM | 
Cn1nnc(-c2ccc(O[C@H]3CCC[C@H](C(=O)O)C3)cn2)c1CNc1ccnc(OCC2(C)CC2)n1 [Example 403] | 2310 nM | 
Cn1nnc(-c2ccc(O[C@H]3CCC[C@H](C(=O)O)C3)cn2)c1COc1nccc(C(F)(F)F)n1 [Example 404] | 173 nM | 
Cc1nc(-c2nnn(C)c2COc2cc(-n3ccnn3)ncn2)ccc1O[C@H]1CCC[C@H](C(=O)O)C1 [Example 405] | 129 nM | 
CC(C)c1ccnc(NCc2c(-c3ccc(O[C@H]4CCC[C@H](C(=O)O)C4)c(C#N)n3)nnn2C)n1 [Example 406] | 18 nM | 
Cn1nnc(-c2ccc(O[C@H]3CCC[C@H](C(=O)O)C3)c(C#N)n2)c1CNc1nccc(C(C)(C)C)n1 [Example 407] | 104 nM | 
CCCOc1ccnc(NCc2c(-c3ccc(O[C@H]4CCC[C@H](C(=O)O)C4)c(C#N)n3)nnn2C)n1 [Example 408] | 22 nM | 
C[C@@H](N)[C@H]1CC[C@H](C(=O)Nc2ccncc2)CC1 [Example Y-27632] |  | allodynia and hyperalgesia [3]: completely abolished
Cc1noc(-c2ccc(CSCCC(=O)O)cc2)c1NC(=O)OC(C)c1ccccc1Cl (centres unmarked) [Ki16425] |  | chemotaxis of human foetal lung fibroblasts induced by BAL from IPF patients [4]: blocked; development of renal fibrosis [5]: closely resembled the profile of LPA1 (−/−) mice; LPA-induced increase in expression of CTGF [6]: almost completely suppressed; LPA-induced and ascites-induced invasion activity ([7]; highly peritoneal metastatic pancreatic cancer cell line (Yamada et al.)): blocked; in vitro migration in response to LPA and peritoneal fluid (ascites) from pancreatic cancer patients ([7]; pancreatic cancer cell lines (Yamada et al.)): effectively blocked
